These results are taken from patent publication US20100286145A1, “ISOPHTHALAMIDE DERIVATIVES INHIBITING BETA-SECRETASE ACTIVITY” (CoMentis, Inc., priority 2007, published 2010).

A word on the IC50: it is the midpoint of a concentration-inhibition curve.

One experiment addresses T1, memapsin 1 (Homo sapiens, UniProt Q9Y5Z0).
T1 sequence (Q9Y5Z0 63-518): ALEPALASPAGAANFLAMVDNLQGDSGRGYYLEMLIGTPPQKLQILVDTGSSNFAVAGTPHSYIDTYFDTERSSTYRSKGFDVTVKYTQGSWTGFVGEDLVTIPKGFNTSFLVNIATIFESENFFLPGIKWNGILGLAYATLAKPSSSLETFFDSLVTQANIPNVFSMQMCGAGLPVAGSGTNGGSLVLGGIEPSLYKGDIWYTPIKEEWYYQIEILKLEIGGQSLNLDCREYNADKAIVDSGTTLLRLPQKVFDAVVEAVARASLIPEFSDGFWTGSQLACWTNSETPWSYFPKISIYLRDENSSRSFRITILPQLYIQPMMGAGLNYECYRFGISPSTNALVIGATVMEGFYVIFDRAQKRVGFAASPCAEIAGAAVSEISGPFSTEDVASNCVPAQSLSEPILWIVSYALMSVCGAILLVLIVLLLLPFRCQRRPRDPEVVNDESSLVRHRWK
Kind of experiment: Inhibition of memapsin 1 beta-secretase activity (substrate peptide ELDLAVEFWHDR, MALDI-TOF). The class given is biochemical. To be noted: read-out: M1Ki.

Another experiment concerns the target memapsin 2 (Homo sapiens, UniProt P56817). Kind of experiment: Inhibition of memapsin 2 beta-secretase activity (fluorogenic substrate FS-2). The class given is biochemical. To be noted: memapsin 2, pH 4, 37° C., read-out: M2Ki. Summed up:
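Memapsin 2 pre-incubated 20 min with compound at pH 4, 37° C, then FS-2 substrate (MCA-SEVNLDAEFK-DNP, APP Swedish cleavage site) added. Rate of fluorescence increase compared with uninhibited controls, fitted to a tight-binding inhibition model.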

In another experiment the target is cathepsin D (Homo sapiens, UniProt P07339). The experiment can be described thus: Inhibition of cathepsin D activity (substrate peptide ELDLAVEFWHDR, MALDI-TOF). To be noted: read-out: CDKi. The class given is biochemical.
For experiment [1], the system named is Aβ production in Chinese hamster ovary cells that over-express human APP695 with the London and Swedish mutations. The experiment can be described thus: Cellular Aβ IC50 determination (Aβ40 sandwich ELISA). To be noted: Cricetulus griseus; cellular Aβ production; read-out: IC50. The class given is cell-based. Summed up:
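CHO cells overexpressing human APP695 with London and Swedish mutations, seeded at 10% confluency, treated with compounds up to about 4 μM final (0.4% DMSO). Secreted Aβ40 measured by sandwich ELISA relative to control and fitted to a 4-parameter IC50 model.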
Background: In an ELISA, binding on a coated surface is turned into a signal by an enzyme label.

SMILES strings stand for the structures. Like-named read-outs stand apart in the source and are kept apart here.

Sequence of memapsin 2 (P56817 46-501): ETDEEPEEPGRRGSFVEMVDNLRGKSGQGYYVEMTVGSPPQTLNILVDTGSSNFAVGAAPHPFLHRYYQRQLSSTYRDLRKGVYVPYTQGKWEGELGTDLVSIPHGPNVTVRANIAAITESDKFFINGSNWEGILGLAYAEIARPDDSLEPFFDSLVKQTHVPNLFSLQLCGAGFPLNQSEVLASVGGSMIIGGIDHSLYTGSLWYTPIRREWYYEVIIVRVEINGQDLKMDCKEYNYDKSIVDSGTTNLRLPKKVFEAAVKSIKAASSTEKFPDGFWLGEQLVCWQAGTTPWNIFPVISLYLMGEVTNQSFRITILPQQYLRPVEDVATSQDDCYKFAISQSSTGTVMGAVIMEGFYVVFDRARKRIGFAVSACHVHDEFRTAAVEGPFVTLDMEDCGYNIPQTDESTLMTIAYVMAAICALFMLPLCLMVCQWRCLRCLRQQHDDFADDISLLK
Sequence of cathepsin D (P07339 65-412, species assumed): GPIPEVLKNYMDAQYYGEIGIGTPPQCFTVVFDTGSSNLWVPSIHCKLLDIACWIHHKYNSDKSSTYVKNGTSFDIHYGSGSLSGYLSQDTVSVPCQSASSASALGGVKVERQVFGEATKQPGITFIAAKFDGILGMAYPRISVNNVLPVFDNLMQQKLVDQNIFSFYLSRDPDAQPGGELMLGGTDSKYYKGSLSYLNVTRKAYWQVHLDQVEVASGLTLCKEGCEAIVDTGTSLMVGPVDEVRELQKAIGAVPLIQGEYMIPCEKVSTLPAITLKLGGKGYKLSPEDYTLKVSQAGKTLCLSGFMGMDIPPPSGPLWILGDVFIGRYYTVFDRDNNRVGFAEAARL

As to `COc1cccc(CNC[C@@H](O)[C@H](Cc2ccccc2)NC(=O)c2cc(OC)cc(C(=O)N(C)Cc3nc(C)cs3)c2)c1` [Compound 3, N1-((2S,3R)-3-hydroxy-4-(3-methoxybenzylamino)-1-phenylbutan-2-yl)-5-methoxy-N3-methyl-N3-((4-methylthiazol-2-yl)methyl)isophthalamide], the Ki on memapsin 1 is 301 to 500 nM; at memapsin 2 (20 minutes pre-incubation), less than 300 nM; on cathepsin D it was less than 300 nM. The IC50 in experiment [1] was less than 1000 nM.

Consider `COc1cc(CNC[C@@H](O)[C@H](Cc2ccccc2)NC(=O)c2cccc(C(=O)N(C)Cc3nc(C)cs3)c2)cc(OC)c1` [Compound 8, N1-((2S,3R)-4-(3,5-dimethoxybenzylamino)-3-hydroxy-1-phenylbutan-2-yl)-N3-methyl-N3-((4-methylthiazol-2-yl)methyl)isophthalamide], for which the Ki was 301 to 500 nM at memapsin 1, less than 300 nM at memapsin 2 (20 minutes pre-incubation) and less than 300 nM at cathepsin D. In experiment [1], the IC50 was less than 1000 nM.

As for `COC(=O)c1cc(C(=O)N[C@@H](Cc2ccccc2)[C@H](O)CNCc2cccc(OC)c2)cc(C(=O)N(C)Cc2nc(C)cs2)c1` [Compound 17, methyl 3-((2S,3R)-3-hydroxy-4-(3-methoxybenzylamino)-1-phenylbutan-2-ylcarbamoyl)-5-(methyl((4-methylthiazol-2-yl)methyl)carbamoyl)benzoate], the Ki was more than 501 nM on memapsin 1, less than 300 nM at memapsin 2 (20 minutes pre-incubation) and less than 300 nM on cathepsin D. Further, the 50% inhibitory concentration (IC50) in experiment [1] was less than 1000 nM.

Turning to `C=Cc1cc(C(=O)N[C@@H](Cc2ccccc2)[C@H](O)CNCc2cccc(OC)c2)cc(C(=O)N(C)Cc2nc(C)cs2)c1` [Compound 21, N1-((2S,3R)-3-hydroxy-4-(3-methoxybenzylamino)-1-phenylbutan-2-yl)-N3-methyl-N3-((4-methylthiazol-2-yl)methyl)-5-vinylisophthalamide], the Ki on memapsin 1 is more than 501 nM; at memapsin 2 (20 minutes pre-incubation) it was less than 300 nM; at cathepsin D it was less than 300 nM. Further, in experiment [1], the half-maximal inhibitory concentration (IC50) is less than 1000 nM.

For `Cc1csc(CN(C(=O)c2cccc(C(=O)N[C@@H](Cc3ccccc3)[C@H](O)CNCc3cccc(C(F)(F)F)c3)c2)C2CC2)n1` [Compound 29, N1-cyclopropyl-N3-((2S,3R)-3-hydroxy-1-phenyl-4-(3-(trifluoromethyl)benzylamino)butan-2-yl)-N1-((4-methylthiazol-2-yl)methyl)isophthalamide], the Ki at memapsin 1 is 301 to 500 nM; at memapsin 2 (20 minutes pre-incubation), less than 300 nM; on cathepsin D, less than 300 nM. Besides, the IC50 in experiment [1] was less than 1000 nM.

On to `Cc1cc(C(=O)N[C@@H](Cc2ccccc2)[C@H](O)CNCc2cncc(C(C)C)c2)cc(C(=O)N(C)Cc2nc(C)cs2)c1` [Compound 32, N1-((2S,3R)-3-hydroxy-4-((5-isopropylpyridin-3-yl)methylamino)-1-phenylbutan-2-yl)-N3,5-dimethyl-N3-((4-methylthiazol-2-yl)methyl)isophthalamide], for which the Ki on memapsin 1, on memapsin 2 (20 minutes pre-incubation) and on cathepsin D was less than 300 nM in each case. In addition, the IC50 in experiment [1] was less than 1000 nM.

For `Cc1csc(CN(C)C(=O)c2cccc(C(=O)N[C@@H](Cc3ccccc3)[C@H](O)CNCc3ccnc(C(C)C)c3)c2)n1` [Compound 33, N1-((2S,3R)-3-hydroxy-4-((2-isopropylpyridin-4-yl)methylamino)-1-phenylbutan-2-yl)-N3-methyl-N3-((4-methylthiazol-2-yl)methyl)isophthalamide], the Ki was 301 to 500 nM on memapsin 1, less than 300 nM at memapsin 2 (20 minutes pre-incubation) and less than 300 nM on cathepsin D. Further, the IC50 in experiment [1] is less than 1000 nM.

Consider `COc1cc(C(=O)N[C@@H](Cc2ccccc2)[C@H](O)CNCc2cncc(C(C)C)c2)cc(C(=O)N(C)Cc2nc(C)cs2)c1` [Compound 40, N1-((2S,3R)-3-hydroxy-4-((5-isopropylpyridin-3-yl)methylamino)-1-phenylbutan-2-yl)-5-methoxy-N3-methyl-N3-((4-methylthiazol-2-yl)methyl)isophthalamide], for which the Ki on memapsin 1, on memapsin 2 (20 minutes pre-incubation) and on cathepsin D was less than 300 nM each time. Further, the IC50 in experiment [1] was less than 1000 nM.

Regarding `COc1cccc(CNC[C@@H](O)[C@H](Cc2ccccc2)NC(=O)c2cc(C(N)=O)cc(C(=O)N[C@H](C)c3ccccc3)c2)c1` [Compound 91, N1-((2S,3R)-3-hydroxy-4-(3-methoxybenzylamino)-1-phenylbutan-2-yl)-N3-((R)-1-phenylethyl)benzene-1,3,5-tricarboxamide], the figures for the Ki at memapsin 1, on memapsin 2 (20 minutes pre-incubation) and at cathepsin D were less than 300 nM, more than 501 nM and more than 501 nM, respectively.

Take `Cc1csc(CN(C)C(=O)c2cc(C(=O)N[C@@H](Cc3ccccc3)[C@H](O)CNCc3cncc(C(C)C)c3)cc(-c3ncco3)c2)n1` [Compound 170, N1-((2S,3R)-3-hydroxy-4-((5-isopropylpyridin-3-yl)methylamino)-1-phenylbutan-2-yl)-N3-methyl-N3-((4-methylthiazol-2-yl)methyl)-5-(oxazol-2-yl)isophthalamide]: the Ki at memapsin 1 and on memapsin 2 (20 minutes pre-incubation) was less than 300 nM each time. For the same molecule, the IC50 in experiment [1] was less than 1000 nM.

As to `Cc1csc(CN(C)C(=O)c2cccc(C(=O)N[C@@H](Cc3cc(F)cc(F)c3)[C@H](O)CNCc3cncc(C(C)C)c3)c2)n1` [Compound 208, N1-((2S,3R)-1-(3,5-difluorophenyl)-3-hydroxy-4-((5-isopropylpyridin-3-yl)methylamino)butan-2-yl)-N3-methyl-N3-((4-methylthiazol-2-yl)methyl)isophthalamide], the Ki at memapsin 1 and at memapsin 2 (20 minutes pre-incubation) was less than 300 nM each time. The IC50 in experiment [1] is less than 1000 nM.

Regarding `Cc1csc(CN(C)C(=O)c2cc(C(=O)N[C@@H](Cc3ccccc3)[C@H](O)CNCc3cncc(C(C)C)c3)cc(-c3cnco3)c2)n1` [Compound 218, N1-((2S,3R)-3-hydroxy-4-((5-isopropylpyridin-3-yl)methylamino)-1-phenylbutan-2-yl)-N3-methyl-N3-((4-methylthiazol-2-yl)methyl)-5-(oxazol-5-yl)isophthalamide], the Ki at memapsin 1 and on memapsin 2 (fluorogenic substrate FS-2) was less than 300 nM in each case. The IC50 in experiment [1] was less than 1000 nM.

On to `Cc1csc(CN(C)C(=O)c2cc(C(=O)N[C@@H](Cc3ccccc3)[C@H](O)CNCc3cncc(C(C)(C)F)c3)cc(N(C)C)c2)n1` [Compound 220, 5-(dimethylamino)-N1-((2S,3R)-4-((5-(2-fluoropropan-2-yl)pyridin-3-yl)methylamino)-3-hydroxy-1-phenylbutan-2-yl)-N3-methyl-N3-((4-methylthiazol-2-yl)methyl)isophthalamide], for which the Ki at memapsin 1 and at memapsin 2 (fluorogenic substrate FS-2) was less than 300 nM each time. For the same molecule, the IC50 in experiment [1] was less than 1000 nM.

Regarding `Cc1csc(CN(C)C(=O)c2cccc(C(=O)N[C@@H](Cc3ccccc3)[C@H](O)CNCc3cc(CS(C)(=O)=O)cc(C(C)C)c3)c2)n1` [Compound 228, N1-((2S,3R)-3-hydroxy-4-(3-isopropyl-5-(methylsulfonylmethyl)benzylamino)-1-phenylbutan-2-yl)-N3-methyl-N3-((4-methylthiazol-2-yl)methyl)isophthalamide], the Ki was 301 to 500 nM on memapsin 1 and less than 300 nM on memapsin 2 (fluorogenic substrate FS-2). Moreover, the IC50 in experiment [1] is less than 1000 nM.

For the molecule `CN(Cc1nc(CF)cs1)C(=O)c1cccc(C(=O)N[C@@H](Cc2ccccc2)[C@H](O)CNCc2cncc(C(F)(F)F)c2)c1` [Compound 280, N1-((4-(fluoromethyl)thiazol-2-yl)methyl)-N3-((2S,3R)-3-hydroxy-1-phenyl-4-((5-(trifluoromethyl)pyridin-3-yl)methylamino)butan-2-yl)-N1-methylisophthalamide], the Ki on memapsin 2 (fluorogenic substrate FS-2) was less than 300 nM. For the same molecule, the IC50 in experiment [1] is less than 1000 nM.

As to `Cc1csc(CN(C)C(=O)c2cc(C(=O)N[C@@H](Cc3ccccc3)[C@H](O)CNCc3cncc(C(C)(C)F)c3)cc(C(F)F)c2)n1` [Compound 293, 5-(difluoromethyl)-N1-((2S,3R)-4-((5-(2-fluoropropan-2-yl)pyridin-3-yl)methylamino)-3-hydroxy-1-phenylbutan-2-yl)-N3-methyl-N3-((4-methylthiazol-2-yl)methyl)isophthalamide], the Ki at memapsin 2 (fluorogenic substrate FS-2) was less than 300 nM. Further, in experiment [1], the concentration for half-maximal inhibition (IC50) was less than 1000 nM.

In the case of `COC1(OC)CCN(c2cc(C(=O)N[C@@H](Cc3ccccc3)[C@H](O)CNCc3cncc(C(C)C)c3)cc(C(=O)N(C)Cc3nc(C)cs3)c2)C1` [Compound 299, 5-(3,3-dimethoxypyrrolidin-1-yl)-N1-((2S,3R)-3-hydroxy-4-((5-isopropylpyridin-3-yl)methylamino)-1-phenylbutan-2-yl)-N3-methyl-N3-((4-methylthiazol-2-yl)methyl)isophthalamide], on memapsin 2 (fluorogenic substrate FS-2), the Ki was less than 300 nM. Also, the 50% inhibitory concentration (IC50) in experiment [1] was less than 1000 nM.
